{"source": "patent US20170008888A1", "about": "(KYORIN PHARMACEUTICAL CO., LTD., priority 2014, published 2017)", "system": "human PBMCs", "assay": "Human PBMC TNF-α response to endotoxin (ELISA)", "type": "cell-based", "conditions": "0.1 μg/ml LPS 16 h, read-out: EC50 for the inhibition of the human PBMC TNF-α response to endotoxin, ave. ± S.D.", "experimental": "Human PBMCs (Astarte Biologics, Redmond, Wash.) were seeded at 2e6 cells/ml in RPMI 1640 containing 10% (v/v) charcoal-dextran treated, heat inactivated FBS (Omega Scientific, Tarzana, Calif.), 0.05 mM 2-Mercaptoethanol (Sigma-Aldrich, St. Louis, Mo.), and 1×Pen/Strep Amphotericin B (Lonza, Allendale, N.J.). Cells were pre-treated with test compounds (10 μM down by ⅕ in a 4-point serial dilution series) for 1 h at 37° C. in a humidified atmosphere at 5% CO2. Cells were then stimulated with 0.1 μg/ml lipopolysaccharide (LPS) from E. coli 0111:B4 (EMD Millipore, Billerica, Mass.) for 16 h at 37° C. in a humidified atmosphere at 5% CO2. Supernatant was collected and a 25-fold dilution was analyzed for TNF-α concentration using an ELISA kit from Life Technologies (Grand Island, N.Y.) according to the manufacturer's instructions. Absorbance at 450 nm was read using the Synergy 2 multi-detection microplate reader (BioTek Instruments, Winooski, Vt.).", "note": "pEC50: −log10 of the molar value.", "data": [{"molecule": "CCOc1cc(C(=O)N(C)C)ccc1Nc1cc2c(cn1)N(C)C(=O)c1ccccc1N2C", "note": "[Compound 117]", "values": [{"measurement": "pEC50", "result": 5.83}]}, {"molecule": "CCN(CC)CCN(C)C(=O)c1ccc(OC)c(Nc2cc3c(cn2)N(C)C(=O)c2ccccc2N3C)c1", "note": "[Compound 118]", "values": [{"measurement": "pEC50", "result": 5.48}]}, {"molecule": "CCN(CC)CCN(C)C(=O)c1cccc(Nc2cc3c(cn2)N(C)C(=O)c2ccccc2N3C)c1OC", "note": "[Compound 119]", "values": [{"measurement": "pEC50", "result": 5.40}]}, {"molecule": "CCOc1cc(C(=O)N(CCO)CCO)ccc1Nc1cc2c(cn1)N(C)C(=O)c1ccccc1N2C", "note": "[Compound 121]", "values": [{"measurement": "pEC50", "result": 6.02}]}, {"molecule": "CCOc1cc(C(=O)N2CC[C@@H](NC3CCN(C)CC3)C2)ccc1Nc1cc2c(cn1)N(C)C(=O)c1ccccc1N2C", "note": "[Compound T60]", "values": [{"measurement": "pEC50", "result": 6.02}]}, {"molecule": "CCOc1cc(C(=O)N[C@H]2CC[C@H](O)CC2)ccc1Nc1cc2c(cn1)N(C)C(=O)c1ccccc1S2", "note": "[Compound T90]", "values": [{"measurement": "pEC50", "result": "< 4.82"}]}, {"molecule": "CCOc1cc(C(=O)N[C@H]2CC[C@H](O)CC2)ccc1Nc1cc2c(cn1)N(C)C(=O)c1ccccc1S2(=O)=O", "note": "[Compound T91]", "values": [{"measurement": "pEC50", "result": "< 4.82"}]}, {"molecule": "CCOc1cc(C(=O)N2CCN(C3CCN(C)CC3)CC2)ccc1Nc1cc2c(cn1)N(C)C(=O)c1ccccc1S2(=O)=O", "note": "[Compound T101]", "values": [{"measurement": "pEC50", "result": "< 4.82"}]}, {"molecule": "CN1C(=O)c2ccccc2N(C)c2cc(NC3CCCCC3O)ncc21", "note": "(centres unmarked) [Compound T108]", "values": [{"measurement": "pEC50", "result": 5.52}]}, {"molecule": "CN1C(=O)c2ccccc2N(C)c2cc(N[C@@H]3CCCCC3O)ncc21", "note": "(some centres unmarked) [Compound T109]", "values": [{"measurement": "pEC50", "result": 5.67}]}, {"molecule": "CN1C(=O)c2ccccc2N(C)c2cc(N[C@@H]3CCC[C@H](O)C3)ncc21", "note": "[Compound T111]", "values": [{"measurement": "pEC50", "result": 5.72}]}, {"molecule": "CCO[C@@H]1CCCC[C@H]1Nc1cc2c(cn1)N(C)C(=O)c1ccccc1N2C", "note": "[Compound T112]", "values": [{"measurement": "pEC50", "result": 5.63}]}, {"molecule": "Cc1cccc2c1N(C)c1cc(N[C@H]3CC[C@H](O)CC3)ncc1N(C)C2=O", "note": "[Compound T121]", "values": [{"measurement": "pEC50", "result": 5.52}]}, {"molecule": "CN1C(=O)c2ccccc2N(C)c2cc(N[C@H]3CC[C@@](C)(O)CC3)ncc21", "note": "[Compound T123]", "values": [{"measurement": "pEC50", "result": 5.68}]}, {"molecule": "CN1C(=O)c2ccccc2N(C)c2cc(NC3CCN(S(=O)(=O)CCN4CCCC4)CC3)ncc21", "note": "[Compound T130]", "values": [{"measurement": "pEC50", "result": 5.61}]}, {"molecule": "CN1C(=O)c2ccccc2N(C)c2cc(N[C@H]3C[C@@H](O)C3)ncc21", "note": "[Compound T131]", "values": [{"measurement": "pEC50", "result": 5.22}]}, {"molecule": "CN1C(=O)c2ccccc2N(C)c2cc(N[C@@H]3CC[C@@H](O)C3)ncc21", "note": "[Compound T132]", "values": [{"measurement": "pEC50", "result": 5.48}]}, {"molecule": "CN1C(=O)c2ccccc2N(C)c2cc(N[C@H]3CC[C@H](N)C3)ncc21", "note": "[Compound T133]", "values": [{"measurement": "pEC50", "result": 5.01}]}, {"molecule": "CN1C(=O)c2ccccc2N(C)c2cc(N[C@H]3CC[C@@H](O)C3)ncc21", "note": "[Compound T134]", "values": [{"measurement": "pEC50", "result": 5.43}]}, {"molecule": "CN1C(=O)c2ccccc2N(C)c2cc(N[C@H]3C[C@H](N)C3)ncc21", "note": "[Compound T135]", "values": [{"measurement": "pEC50", "result": 5.04}]}]}
